Measured values from patent US4096263A, “1,2,3,4-Tetrahydroisoquinolines and the preparation thereof” (Fujisawa Pharmaceutical Co., Ltd., priority 1975, dated 1978).
Structures can show the parent of a compound that is named as a salt.

Test system: jejunum of the dog
Experiment: Intestinal Motility in Dogs (balloon at the jejunum, inhibition of motility in anesthetized mongrel dogs)
Type: in vivo
Protocol: Intestinal Motility in Dogs Method: Mongrel dogs weighing 8 to 16 kg which were withheld from any food and water for 24 hours were anesthetized with a combination of urethane (1.5 g/kg) and morphine (15 mg/kg). A balloon was placed at the jejunum of the dog, compressed at a pressure of 10 cm. H2 O, and connected to a strain gauge. Changes in the motility were mainly recorded in terms of amplitude, but taking account of the number of movements. The maximum change of all the determinations, served as the calculation of the 50% inhibition dose (ED50). The time required for 80% recovery was considered as a duration of action.

`Cn1nnnc1NCC1NCCc2cc(O)c(O)cc21` (centres unmarked) [Test Compound, 1-(1-Methyl-1H-tetrazol-5-yl)aminomethyl-6,7-dihydroxy-1,2,3,4-tetrahydroisoquinoline hydrochloride trihemihydrate] was tested, and the ED50 (Canis lupus familiaris, anesthetized mongrel dogs (urethane 1.5 g/kg and morphine 15 mg/kg), jejunal balloon at 10 cm. H2O, maximum change of motility, mainly amplitude, route not stated, read-out: ED50 (50% inhibition dose)) was 1 µg/kg and the “Duration of Action” value (time required for 80% recovery, anesthetized mongrel dogs, jejunal balloon, dose and route not stated) was 25 min.
